Patent publication US7592188B2, “Live cell biosensors” (The Scripps Research Institute, priority 2004, dated 2009)
Each block holds one compound with its values, some of them ahead of it.

How the values were obtained:
[1] = tested on: Cdc42 activation; assay: Peripheral Cdc42 activation in cells treated with cytoskeletal agents; assay type: cell-based
Description: Microtubules or actin may direct Cdc42 activation to specific peripheral locations. This possibility was explored by treating cells with the microtubule-depolymerizing agents nocodazole and colchicine, or with cytochalasin D, an inhibitor of actin polymerization. […] Microtubules may therefore localize interactions between Cdc42 and guanine nucleotide exchange factors by directing vesicle trafficking or regulating events at adhesion complexes.

[2] = Photophysical properties of dyes in various solvents (absorbance, emission, quantum yield); assay type: physicochemical; parameters: ε × F / ε × Φ: unit not given here
Procedure: Analytical grade reagents were purchased from major suppliers. […] Emission and excitation spectra were obtained using a Spex Fluorolog 2 spectrofluorometer at 23° C. […] Demas et al., J. Phys. […] All operations with dyes were performed under dim light. Flasks containing dyes were wrapped with aluminum foil.

[3] = Water solubility and aggregation of dyes in water (absorbance spectra); conditions: in water, absorbance spectrum
[4] = Dye photo-bleaching under tungsten lamp irradiation; assay type: physicochemical
Procedure: Photo-bleaching. All samples contained 1 mM dye in a final volume of 10 mL. For nitrogen and oxygen saturation the samples were bubbled with solvent-saturated gas for 30 min. A 90 W halogen tungsten lamp was employed for irradiation, with a fan used for cooling. The temperature of samples was 25±1° C. during reactions. The absorption spectrum of each sample was measured before irradiation and after every 10 h period. For the trapping experiment thioanisole (1.0 M) was added to oxygen-saturated butanol solution of dye 1b. After 60 h of irradiation the reaction mixture was analyzed by GC-MS for products formed. The products, methylphenylsulfoxide and methylphenyl sulfone, were identified by comparison with authentic samples.
Dyes used in living cells must be photostable to provide many sequential images and to obtain sufficient light from minimal amounts of exogenous labeled material. The photostability of the new dyes was characterized by exposing them to constant illumination from a tungsten lamp filtered through glass, a broad spectrum light source that provided essentially equal intensity throughout the spectral range where the dyes would be irradiated in vivo. A fan was used to prevent heating, and dye solutions were adjusted for equal maximal absorbance, kept below 1 μM to minimize the inner filter effect. […] Photo-bleaching followed first-order kinetics in all cases.

Compound: COc1cc2c(c(OC)c1OC)-c1ccc(OC)c(=O)cc1[C@@H](NC(C)=O)CC2 [colchicine]
effect on peripheral Cdc42 activation [1]: markedly affected peripheral Cdc42 activation

Compound: O=C(CSCCO)Nc1ccc2c(c1)S\C(=C/C=C/C=C1/C(=O)c3ccccc3S1(=O)=O)N2CCCS(=O)(=O)[O-].[Na+] [dye 2g, Sodium 3-[(2Z)-6-({[(2-Hydroxyethyl)thio]acetyl}amino)-2-[(2E,4Z)-4-(1,1-dioxido-3-oxo-1-benzothien-2(3H)-ylidene)but-2-enylidene]-1,3-benzothiazol-3(2H)-yl]propane-1-sulfonate]
quantum yield after reaction with β-mercaptoethanol relative to underivatized fluorophore [2]: returned the quantum yield of S—SO to that of the underivatized fluorophore
Emission λmax ([2]; reactive forms, solvent MeOH): 629 nm
absorption λmax ([2]; reactive forms, solvent MeOH): 610 nm
Φ (quantum yield of fluorescence) ([2]; reactive forms, solvent MeOH): 0.054
ε (molar extinction coefficient) ([2]; reactive forms, solvent MeOH): (138000)
ε × Φ ([2]; reactive forms, solvent MeOH): 8000

Compound: Sodium 3-[(2E)-6-[({2-[(2,5-Dioxopyrrolidin-1-yl)oxy]-2-oxoethoxy}-acetyl)methylaminol]-2-[(2E,4Z)-4-(1,1-dioxido-3-oxo-1-benzothien-2(3H)-ylidene)but-2-enylidene]-1,3-benzothiazol-3(2H)-yl]propane-1-sulfonate [dye 2f]
Emission λmax ([2]; reactive forms, solvent BuOH): 626 nm
absorption λmax ([2]; reactive forms, solvent BuOH): 608 nm
Φ (quantum yield of fluorescence) ([2]; reactive forms, solvent BuOH): 0.12
ε (molar extinction coefficient) ([2]; reactive forms, solvent BuOH): (134000)
Emission λmax ([2]; reactive forms, solvent H2O): 618 nm
Emission λmax ([2]; reactive forms, solvent MeOH): 621 nm
absorption λmax ([2]; reactive forms, solvent MeOH): 603 nm
Φ (quantum yield of fluorescence) ([2]; reactive forms, solvent MeOH): 0.06
ε (molar extinction coefficient) ([2]; reactive forms, solvent MeOH): (142000)

Compound: O=C(CI)Nc1ccc2c(c1)S/C(=C/C=C/C=C1/C(=O)c3ccccc3S1(=O)=O)N2CCCS(=O)(=O)[O-].[Na+] [dye 2e, Sodium 3-[(2E)-6-[(Iodoacetyl)amino]-2-[(2E,4Z)-4-(1,1-dioxido-3-oxo-1-benzothien-2(3H)-ylidene)but-2-enylidene]-1,3-benzothiazol-3(2H)-yl]propane-1-sulfonate]
Emission λmax ([2]; reactive forms, solvent BuOH): 636 nm
absorption λmax ([2]; reactive forms, solvent BuOH): 618 nm
Φ (quantum yield of fluorescence) ([2]; reactive forms, solvent BuOH): 0.06
ε (molar extinction coefficient) ([2]; reactive forms, solvent BuOH): (160000)
ε × Φ ([2]; reactive forms, solvent BuOH): 9600
Emission λmax ([2]; reactive forms, solvent H2O): 618 nm
Emission λmax ([2]; reactive forms, solvent MeOH): 628 nm
absorption λmax ([2]; reactive forms, solvent MeOH): 610 nm
Φ (quantum yield of fluorescence) ([2]; reactive forms, solvent MeOH): 0.034
ε (molar extinction coefficient) ([2]; reactive forms, solvent MeOH): (140000)
ε × Φ ([2]; reactive forms, solvent MeOH): 3000

Compound: C=C1[C@@H](C)[C@H]2[C@H](Cc3ccccc3)NC(=O)[C@]23[C@H](OC(C)=O)/C=C/[C@@](C)(O)C(=O)[C@@H](C)C/C=C/[C@H]3[C@@H]1O [cytochalasin D]
effect on peripheral Cdc42 activation [1]: Only nocodazole and colchicine markedly affected peripheral Cdc42 activation

Compound: COC(=O)Nc1nc2ccc(C(=O)c3cccs3)cc2[nH]1 [nocodazole]
effect on peripheral Cdc42 activation [1]: markedly affected peripheral Cdc42 activation

Compound: CCN1\C(=C/C=C/C=C2/C(=O)c3ccccc3S2(=O)=O)Sc2ccccc21 [dye 2a, (2Z)-2-[(2E,4E)-4-(3-Ethyl-1,3-benzothiazol-2(3H)-ylidene)but-2-enylidene]-1-benzothiophen-3(2H)-one 1,1-Dioxide]
Absolute rate constant of dye photo-bleaching, kph × 10^6 ([4]; BuOH): 5.2 s^−1
Absolute rate constant of dye photo-bleaching, kph × 10^6 ([4]; MeOH): 3.0 s^−1
Abs. λmax ([2]; solvent BuOH): 604 nm
Emission λmax ([2]; solvent BuOH): 622 nm
Φ (quantum yield of fluorescence) ([2]; solvent BuOH): 0.12
ε (molar extinction coefficient) ([2]; solvent BuOH): (163000)
ε × F ([2]; solvent BuOH): 20000
Abs. λmax ([2]; solvent C6H6): 591 nm
Emission λmax ([2]; solvent C6H6): 617 nm
Φ (quantum yield of fluorescence) ([2]; solvent C6H6): 0.16
ε (molar extinction coefficient) ([2]; solvent C6H6): (152000)
ε × F ([2]; solvent C6H6): 24000
Abs. λmax ([2]; solvent DMF): 602 nm
Emission λmax ([2]; solvent DMF): 619 nm
Φ (quantum yield of fluorescence) ([2]; solvent DMF): 0.22
ε (molar extinction coefficient) ([2]; solvent DMF): (173000)
ε × F ([2]; solvent DMF): 38000
Abs. λmax ([2]; solvent MeOH): 598 nm
Emission λmax ([2]; solvent MeOH): 617 nm
Φ (quantum yield of fluorescence) ([2]; solvent MeOH): 0.05
ε (molar extinction coefficient) ([2]; solvent MeOH): (143000)
ε × F ([2]; solvent MeOH): 7000
Abs. λmax ([2]; solvent OcOH): 606 nm
Emission λmax ([2]; solvent OcOH): 623 nm
Φ (quantum yield of fluorescence) ([2]; solvent OcOH): 0.17
ε (molar extinction coefficient) ([2]; solvent OcOH): (168000)
ε × F ([2]; solvent OcOH): 29000

Next, values leading:

concentration at which dye did not aggregate [3]: greater than 250 μM
Compound: Sodium 3-{(2Z)-5-2-[(2E,4Z)-4-(1,1-Dioxido-3-oxo-1-benzothien-2(3H)-ylidene)but-2-enylidene]-3,3-dimethyl-2,3-dihydro-1H-indol-1-yl}propane-1-sulfonate [dye 4b]

quantum yield after reaction with β-mercaptoethanol relative to underivatized fluorophore [2]: half that of the unaltered fluorophore
Emission λmax ([2]; reactive forms, solvent BuOH): 628 nm
absorption λmax ([2]; reactive forms, solvent BuOH): 609 nm
Φ (quantum yield of fluorescence) ([2]; reactive forms, solvent BuOH): 0.12
ε (molar extinction coefficient) ([2]; reactive forms, solvent BuOH): (142000)
ε × Φ ([2]; reactive forms, solvent BuOH): 17000
Emission λmax ([2]; reactive forms, solvent H2O): 620 nm
absorption λmax ([2]; reactive forms, solvent H2O): 600 nm
Φ (quantum yield of fluorescence) ([2]; reactive forms, solvent H2O): 0.02
ε (molar extinction coefficient) ([2]; reactive forms, solvent H2O): (140000)
ε × Φ ([2]; reactive forms, solvent H2O): 3000
Emission λmax ([2]; reactive forms, solvent MeOH): 621 nm
absorption λmax ([2]; reactive forms, solvent MeOH): 601 nm
Φ (quantum yield of fluorescence) ([2]; reactive forms, solvent MeOH): 0.04
ε (molar extinction coefficient) ([2]; reactive forms, solvent MeOH): (140000)
ε × Φ ([2]; reactive forms, solvent MeOH): 6000
Compound: CC1(C)\C(=C/C=C/C=C2/C(=O)c3ccccc3S2(=O)=O)N(CCCS(=O)(=O)[O-])c2ccc(NC(=O)CSCCO)cc21.[Na+] [dye 4g, Sodium 3-{(2E)-5-({[(2-Hydroxyethyl)thio]acetyl}amino)-2-[(2E,4Z)-4-(1,1-dioxido-3-oxo-1-benzothien-2(3H)-ylidene)but-2-enylidene]-3,3-dimethyl-2,3-dihydro-2,3-dihydro-1H-indol-1-yl}propane-1-sulfonate]

Absolute rate constant of dye photo-bleaching, kph × 10^6 ([4]; BuOH): 0.65 s^−1
Absolute rate constant of dye photo-bleaching, kph × 10^6 ([4]; MeOH): 0.28 s^−1
Abs. λmax ([2]; solvent BuOH): 587 nm
Emission λmax ([2]; solvent BuOH): 618 nm
Φ (quantum yield of fluorescence) ([2]; solvent BuOH): 0.54
ε (molar extinction coefficient) ([2]; solvent BuOH): (134000)
ε × F ([2]; solvent BuOH): 72000
Abs. λmax ([2]; solvent C6H6): 571 nm
Emission λmax ([2]; solvent C6H6): 603 nm
Φ (quantum yield of fluorescence) ([2]; solvent C6H6): 0.42
ε (molar extinction coefficient) ([2]; solvent C6H6): (109000)
ε × F ([2]; solvent C6H6): 46000
Abs. λmax ([2]; solvent DMF): 586 nm
Emission λmax ([2]; solvent DMF): 615 nm
Φ (quantum yield of fluorescence) ([2]; solvent DMF): 0.97
ε (molar extinction coefficient) ([2]; solvent DMF): (143000)
ε × F ([2]; solvent DMF): 140000
Abs. λmax ([2]; solvent MeOH): 586 nm
Emission λmax ([2]; solvent MeOH): 615 nm
Φ (quantum yield of fluorescence) ([2]; solvent MeOH): 0.08
ε (molar extinction coefficient) ([2]; solvent MeOH): (143000)
ε × F ([2]; solvent MeOH): 12000
Abs. λmax ([2]; solvent OcOH): 587 nm
Emission λmax ([2]; solvent OcOH): 617 nm
Φ (quantum yield of fluorescence) ([2]; solvent OcOH): 0.98
ε (molar extinction coefficient) ([2]; solvent OcOH): (125000)
ε × F ([2]; solvent OcOH): 123000
Compound: CN1\C(=C/C=C/C=C2/C(=O)c3ccccc3S2(=O)=O)C(C)(C)c2ccccc21 [dye 4a, (2Z)-2-[(2E,4Z)-4-(1,3,3-Trimethyl-1,3-dihydro-2H-indol-2-ylidene)-but-2-enylidene]-1-benzothiophen-3(2H)-one 1,1-Dioxide]

Emission λmax ([2]; reactive forms, solvent BuOH): 623 nm
absorption λmax ([2]; reactive forms, solvent BuOH): 590 nm
Φ (quantum yield of fluorescence) ([2]; reactive forms, solvent BuOH): 0.19
ε (molar extinction coefficient) ([2]; reactive forms, solvent BuOH): (134000)
ε × Φ ([2]; reactive forms, solvent BuOH): 26000
Emission λmax ([2]; reactive forms, solvent H2O): 616 nm
absorption λmax ([2]; reactive forms, solvent H2O): 594 nm
Φ (quantum yield of fluorescence) ([2]; reactive forms, solvent H2O): 0.01
ε (molar extinction coefficient) ([2]; reactive forms, solvent H2O): (150000)
ε × Φ ([2]; reactive forms, solvent H2O): 1500
Emission λmax ([2]; reactive forms, solvent MeOH): 620 nm
absorption λmax ([2]; reactive forms, solvent MeOH): 586 nm
Φ (quantum yield of fluorescence) ([2]; reactive forms, solvent MeOH): 0.05
ε (molar extinction coefficient) ([2]; reactive forms, solvent MeOH): (140000)
ε × Φ ([2]; reactive forms, solvent MeOH): 7000
Compound: CN(C(=O)COCC(=O)ON1C(=O)CCC1=O)c1ccc2c(c1)C(C)(C)/C(=C/C=C/C=C1/C(=O)c3ccccc3S1(=O)=O)N2CCCS(=O)(=O)[O-].[Na+] [dye 4f, Sodium 3-{(2Z)-5-[({2-[(2,5-Dioxopyrrolidin-1-yl)oxy]-2-oxoethoxy}acetyl)methylamino]-2-[(2E,4Z)-4-(1,1-dioxido-3-oxo-1-benzothien-2(3H)-ylidene)but-2-enylidene]-3,3-dimethyl-2,3-dihydro-1H-indol-1-yl}propane-1-sulfonate]

Emission λmax ([2]; reactive forms, solvent BuOH): 639 nm
absorption λmax ([2]; reactive forms, solvent BuOH): 607 nm
Φ (quantum yield of fluorescence) ([2]; reactive forms, solvent BuOH): 0.06
ε (molar extinction coefficient) ([2]; reactive forms, solvent BuOH): (150000)
ε × Φ ([2]; reactive forms, solvent BuOH): 9000
Emission λmax ([2]; reactive forms, solvent H2O): 630 nm
absorption λmax ([2]; reactive forms, solvent H2O): 599 nm
Φ (quantum yield of fluorescence) ([2]; reactive forms, solvent H2O): 0.004
ε (molar extinction coefficient) ([2]; reactive forms, solvent H2O): (143000)
ε × Φ ([2]; reactive forms, solvent H2O): 600
Emission λmax ([2]; reactive forms, solvent MeOH): 634 nm
absorption λmax ([2]; reactive forms, solvent MeOH): 601 nm
Φ (quantum yield of fluorescence) ([2]; reactive forms, solvent MeOH): 0.01
ε (molar extinction coefficient) ([2]; reactive forms, solvent MeOH): (138000)
ε × Φ ([2]; reactive forms, solvent MeOH): 1400
Compound: CC1(C)/C(=C/C=C/C=C2/C(=O)c3ccccc3S2(=O)=O)N(CCCS(=O)(=O)[O-])c2ccc(NC(=O)CI)cc21.[Na+] [dye 4e, Sodium 3-{(2Z)-5-[(Iodoacetyl)amino]-2-[(2E,4Z)-4-(1,1-dioxido-3-oxo-1-benzothien-2(3H)-ylidene)but-2-enylidene]-3,3-dimethyl-2,3-dihydro-1H-indol-1-yl}propane-1-sulfonate]
